According to patent US6682892B2, “Method for treating herpes viruses” (priority 2000, dated 2004):

Key:
HCMV AD169 = assay: Plaque reduction assay, HCMV AD169; format: cell-based; details: Table 4, plaque reduction, wild type; read-out: HCMV AD169 IC50
Protocol: (§1) Antiviral activity of compounds against herpesviruses such as HSV-1, HSV-2, or HCMV can be measured using plaque reduction assays. 0.1 ml of media containing approximately 50 PFU of virus is added to each well of a 24-well cell culture dish containing a confluent monolayer of cells (Vero cells for HSV-1 and HSV-2, HFF cells for HCMV). Compounds are dissolved in 100% DMSO and diluted in 100% DMSO as 200× stocks of the desired final drug concentration. Typically 5-6 two-fold dilutions are prepared for each compound. Dilutions of compounds are then added to media containing 0.8% CMC resulting in a final 1× drug concentration. After the virus-infected cells have incubated for 1 h at 37° C., the virus innoculum is removed and 1 ml of media containing 0.8% CMC and the various concentrations of compound is added to each well of the dish. The dish is incubated at 37° C. for approximately 2-3 days (HSV-1 and HSV-2) or 6-9 days (HCMV) to allow sufficient growth of virus to form plaques in the cell monolayer. Plaques can be observed and counted microscopically or by staining the cells with 0.1% crystal violet in 20% ethanol. […] Antiviral activity of a compound is expressed as the concentration of compound predicted to reduce the number of plaques in a well by 50% (IC50). The IC50 values are calculated by plotting the per cent inhibition vs. concentration of compound using EXCEL software for linear regression.

HSV-1 KOS-M1 (V823A) = assay: Plaque reduction assay, 4-oxo-DHQ resistant HSV-1 KOS-M1; format: cell-based; details: Table 2, mutant V823A; read-out: IC50 (uM), HSV-1 Kos-M1
Protocol: as §1
Vero cells are plated out at a density of 3.5×10^5 cells per well in a six well tissue culture plate. Cells are infected with HSV-1 KOS at a multiplicity of infection (moi) of 0.1 pfu/cell and 1 h post infection the cells are overlayed with 3 ml media containing 20 uM of a 4-oxo-DHQ. Cultures are incubated for 20 h at 37° C., freeze/thawed to release cell-associated virus, and 0.1 ml of culture is used to infect a new monolayer of Vero cells (one passage). Serial passage is repeated seven times in the presence of 20 uM drug. Virus isolates are then plaque purified three times prior to preparation of stocks. 4-oxo-DHQ resistant HSV-1 and HSV-2 may also be selected by the marker transfer method described below using wild-type HSV DNA and the corresponding mutant HSV polymerase gene.
A panel of viruses consisting of four strains of HSV-1 (KOS, F, DJL, Patton) and three strains of HSV-2 (MS, 35D, 186) are tested in a plaque reduction assay against four different 4-oxo-DHQ compounds (#1, 2, 4, 5 as shown in FIG. 1), and one 4-oxo-DHTP compound (#3 as shown in FIG. 1) and against Acyclovir. The six drugs inhibited replication of the seven virus strains with IC50 values ranging from 2-10 μM (Table 1). In order to select for 4-oxo-DHQ resistant mutants, HSV-1 strains KOS, F, and DJL along with HSV-2 strains 186 and MS are serially passaged in the presence of 20 uM compound 1. Following the seventh passage, 4-oxo-DHQ resistant virus from each strain are plaque purified three times and high-titer stocks are made.

HCMV V823A polymerase = biological target: T1, HCMV V823A polymerase (Human cytomegalovirus, UniProt P08546, V823A); assay: In vitro polymerase assay, mutant HCMV polymerase V823A; format: biochemical
T1 construct: made in house
T1 sequence (P08546 1-1242 V823A): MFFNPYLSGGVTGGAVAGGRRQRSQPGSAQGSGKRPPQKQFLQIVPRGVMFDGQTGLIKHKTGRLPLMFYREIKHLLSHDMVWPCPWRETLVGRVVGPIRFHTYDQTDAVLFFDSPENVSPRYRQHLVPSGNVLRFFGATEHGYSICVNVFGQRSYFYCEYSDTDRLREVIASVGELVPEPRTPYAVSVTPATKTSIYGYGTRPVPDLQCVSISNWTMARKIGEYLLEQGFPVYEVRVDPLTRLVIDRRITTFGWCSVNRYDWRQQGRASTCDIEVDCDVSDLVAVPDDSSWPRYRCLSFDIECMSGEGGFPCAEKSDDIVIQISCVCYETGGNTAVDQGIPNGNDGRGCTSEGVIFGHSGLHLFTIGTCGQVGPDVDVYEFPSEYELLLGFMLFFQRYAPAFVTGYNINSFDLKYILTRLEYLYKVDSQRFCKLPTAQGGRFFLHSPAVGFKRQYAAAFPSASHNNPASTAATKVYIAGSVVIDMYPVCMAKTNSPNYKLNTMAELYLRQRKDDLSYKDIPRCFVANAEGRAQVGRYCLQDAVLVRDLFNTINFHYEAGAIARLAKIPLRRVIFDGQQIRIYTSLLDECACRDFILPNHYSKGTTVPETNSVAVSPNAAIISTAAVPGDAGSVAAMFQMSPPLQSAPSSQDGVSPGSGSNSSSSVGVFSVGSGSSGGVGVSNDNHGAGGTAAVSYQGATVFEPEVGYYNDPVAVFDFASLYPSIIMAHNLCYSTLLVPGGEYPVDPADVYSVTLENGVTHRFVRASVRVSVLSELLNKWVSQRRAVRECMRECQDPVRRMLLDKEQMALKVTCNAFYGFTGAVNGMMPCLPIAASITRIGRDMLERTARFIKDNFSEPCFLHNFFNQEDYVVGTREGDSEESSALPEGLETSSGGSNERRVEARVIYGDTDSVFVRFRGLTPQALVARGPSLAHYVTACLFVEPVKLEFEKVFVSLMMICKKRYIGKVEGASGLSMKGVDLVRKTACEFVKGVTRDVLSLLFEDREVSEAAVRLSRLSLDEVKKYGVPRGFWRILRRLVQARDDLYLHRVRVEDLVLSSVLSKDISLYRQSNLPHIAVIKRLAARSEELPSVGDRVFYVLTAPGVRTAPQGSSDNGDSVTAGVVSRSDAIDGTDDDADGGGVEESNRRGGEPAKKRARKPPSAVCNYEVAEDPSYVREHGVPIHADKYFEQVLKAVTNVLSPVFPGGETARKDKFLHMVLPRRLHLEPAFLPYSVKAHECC
Protocol: In order to select for a 4-oxo-DHQ HCMV resistant mutant, virus (strain AD169) is serially passaged in the presence of 20 uM a 4-oxo-DHQ. […] In order to determine if both valines need to be changed in order to confer resistance to the 4-oxo-DHQ's, in vitro polymerase assays are done using mutant HCMV polymerases containing either V823A or V823A plus V824L (Table 3).

Cn1cc(C(=O)NCc2ccc(Cl)cc2)c(=O)c2cc(/C=C\CO)cc(F)c21 [Compound 1]
IC50 (HCMV AD169): 0.7 µM | IC50 (HSV-1 KOS-M1 (V823A)): > 20 µM | IC50 (HCMV V823A polymerase; Table 3): 17.2 µM | increase in resistance, HCMV V823A polymerase (HCMV V823A polymerase; relative to wild type polymerase): *Generation of the valine to alanine at amino acid 823 of HCMV results in a 3.5-fold increase in resistance.
